# Laboratory results taken from the supplement of paper PMC10307832.
# How the values were obtained:
# Experiment in all cases: relative viability (nuclei count vs DMSO), 5 days (fraction); higher = more cells survive
# [1] = compound: CC1(C)CNc2cc(NC(=O)c3cccnc3NCc3ccncc3)ccc21 [Motesanib] + O=C(c1cc(Cc2n[nH]c(=O)c3ccccc23)ccc1F)N1CCN(C(=O)C2CC2)CC1 [Olaparib] (partner 8 µM)
# In short: (§1)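 One day after seeding in 1536-well plates, lung cancer cell lines were dosed by pin tool. Dosing was either single-drug or a fixed anchor-drug dose plus five library-drug doses (not always all listed) in √10 steps. After 5 days, nuclei were stained in one fix-and-stain step and counted on 4× images, and relative viability is the nuclei count of treated wells over that of vehicle wells, given as the median of duplicate plates.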
# [2] = compound: CC1(C)CNc2cc(NC(=O)c3cccnc3NCc3ccncc3)ccc21 [Motesanib] + CS(=O)(=O)CCNCc1ccc(-c2ccc3ncnc(Nc4ccc(OCc5cccc(F)c5)c(Cl)c4)c3c2)o1 [Lapatinib] (partner 2 µM)
# In short: as §1
# [3] = compound: CC1(C)CNc2cc(NC(=O)c3cccnc3NCc3ccncc3)ccc21 [Motesanib] + Cc1cc(Nc2cc(N3CCN(C)CC3)nc(Sc3ccc(NC(=O)C4CC4)cc3)n2)n[nH]1 [Tozasertib] (partner 0.1 µM)
# In short: as §1
# [4] = compound: CC1(C)CNc2cc(NC(=O)c3cccnc3NCc3ccncc3)ccc21 [Motesanib] + CC(C)C[C@H](NC(=O)[C@H](Cc1ccccc1)NC(=O)c1cnccn1)B(O)O [Bortezomib] (partner 0.002 µM)
# In short: as §1
Cell Line,relative viability ([1]; first compound 0.01 µM),relative viability ([1]; first compound 0.03162 µM),relative viability ([1]; first compound 0.1 µM),relative viability ([1]; first compound 0.3162 µM),relative viability ([1]; first compound 1 µM),relative viability ([2]; first compound 0.01 µM),relative viability ([2]; first compound 0.03162 µM),relative viability ([2]; first compound 0.1 µM),relative viability ([2]; first compound 0.3162 µM),relative viability ([2]; first compound 1 µM),relative viability ([3]; first compound 0.01 µM),relative viability ([3]; first compound 0.03162 µM),relative viability ([3]; first compound 0.1 µM),relative viability ([3]; first compound 0.3162 µM),relative viability ([3]; first compound 1 µM),relative viability ([4]; first compound 0.01 µM),relative viability ([4]; first compound 0.03162 µM),relative viability ([4]; first compound 0.1 µM),relative viability ([4]; first compound 0.3162 µM),relative viability ([4]; first compound 1 µM)
LU99A,0.284,0.268,0.271,0.255,0.263,1.03,1.2,0.94,1.03,0.883,0.262,0.234,0.263,0.273,0.263,1.12,1.37,0.921,1.22,1.19
ABC-1,0.895,0.66,0.58,1.15,0.869,1.12,0.945,1.01,1.27,1.17,0.174,0.188,0.226,0.197,0.149,0.282,0.341,0.221,0.284,0.292
NCI-H2347,0.536,0.507,0.559,0.537,0.596,0.961,0.776,0.986,1.01,0.838,0.466,0.445,0.548,0.524,0.443,1.08,0.574,1.08,0.799,1.05
NCI-H1993,1.03,0.94,1.03,1.06,1.08,0.884,0.893,0.801,0.867,0.638,0.603,0.614,0.552,0.501,0.605,1.09,1.06,1.08,1.28,1.06
NCI-H322M,0.82,0.762,0.886,0.803,0.812,0.553,0.372,0.696,0.587,0.566,0.494,0.442,0.502,0.485,0.447,1.32,1.24,1.39,1.36,1.23
NCI-H838,0.778,0.765,0.792,0.746,0.804,0.98,1.03,0.914,1.19,1.02,0.296,0.244,0.255,0.236,0.249,0.887,0.957,0.758,0.965,0.891
HARA,0.761,0.937,1.06,0.902,1.05,0.698,0.668,0.77,0.742,0.804,0.117,0.0896,0.097,0.133,0.0863,1.06,1.19,1.21,1.11,1.11
NCI-H2087,–,–,0.663,0.703,0.747,1.23,0.923,1.23,1.38,1.1,0.208,0.204,0.261,0.208,0.258,0.796,0.781,0.885,0.76,0.704
NCI-H1437,0.637,0.631,0.63,0.682,0.657,0.719,0.78,0.756,0.9,0.781,0.398,0.375,0.393,0.423,0.408,0.368,0.525,0.434,0.626,0.615
NCI-H650,0.446,0.382,0.42,0.39,0.426,0.815,0.932,0.897,1.13,0.888,0.749,–,0.709,0.707,0.701,0.805,0.954,0.83,1.02,0.647
COR-L23,0.366,0.389,0.275,0.363,0.36,0.931,0.929,1.01,0.996,1.08,0.238,0.141,0.456,0.193,0.191,1.01,0.974,1.04,1.11,0.914
COR-L 105,0.767,0.761,0.745,0.725,0.804,0.368,0.408,0.327,0.355,0.347,0.341,0.33,0.327,0.381,0.345,0.873,1.01,0.939,1.02,0.785
201T,0.803,0.828,0.852,0.88,0.872,1.01,1.04,1.08,1.04,0.903,0.888,0.833,1.05,0.923,0.97,1.05,1.07,1.08,1.17,1.08
HCC-44,0.944,0.926,1.07,1.09,0.95,0.989,0.952,1.02,1.04,1.03,0.944,0.721,0.941,0.998,0.974,0.905,0.877,0.994,0.974,0.885
NCI-H596,0.792,0.623,0.648,0.677,0.646,1.08,1.04,1.06,1.16,1.18,0.917,1.27,1.04,0.843,1.01,0.995,0.872,–,1.18,0.995
H3255,0.564,0.601,0.576,0.585,0.643,0.228,0.276,0.224,0.268,0.254,0.549,0.671,0.742,0.513,0.608,0.714,0.733,0.637,0.936,0.799
NCI-H647,0.48,0.638,0.496,0.629,0.611,0.995,1,1.11,1.19,1.09,0.304,0.239,0.285,0.404,0.359,0.984,1.01,0.974,1.06,0.883

Cell Line,relative viability ([1]; first compound 0.01 µM),relative viability ([1]; first compound 0.03162 µM),relative viability ([1]; first compound 0.1 µM),relative viability ([1]; first compound 0.3162 µM),relative viability ([1]; first compound 1 µM),relative viability ([2]; first compound 0.01 µM),relative viability ([2]; first compound 0.03162 µM),relative viability ([2]; first compound 0.1 µM),relative viability ([2]; first compound 0.3162 µM),relative viability ([2]; first compound 1 µM),relative viability ([3]; first compound 0.01 µM),relative viability ([3]; first compound 0.03162 µM),relative viability ([3]; first compound 0.1 µM),relative viability ([3]; first compound 0.3162 µM),relative viability ([3]; first compound 1 µM),relative viability ([4]; first compound 0.01 µM),relative viability ([4]; first compound 0.03162 µM),relative viability ([4]; first compound 0.1 µM),relative viability ([4]; first compound 0.3162 µM),relative viability ([4]; first compound 1 µM)
NCI-H2023,0.469,0.409,0.515,0.496,0.425,0.939,0.778,0.54,0.988,0.897,0.379,0.309,0.346,0.325,0.286,0.934,1.07,0.887,0.966,1.09
NCI-H23,0.354,0.299,0.308,0.281,0.348,1.14,0.864,–,1.13,1.11,0.346,0.31,0.341,0.363,0.333,1.06,0.766,–,1.21,1.16
NCI-H520,0.319,0.32,0.294,0.297,0.392,0.714,0.823,0.877,0.882,0.899,0.37,0.371,0.453,0.45,0.447,0.482,0.747,0.432,0.653,0.693
NCI-H460,0.413,0.396,0.484,0.446,0.402,0.961,0.779,0.892,0.974,0.864,0.416,0.266,0.514,0.442,0.485,1.09,1.18,1.08,1.25,1.1
EKVX,0.74,0.809,0.776,0.904,0.944,0.201,0.21,0.225,0.204,0.246,0.368,0.381,0.356,0.432,0.422,1.1,1.19,1.04,1.14,1.06
EPLC-272H,0.779,1.33,0.759,0.689,0.745,1,0.943,0.847,0.925,0.898,0.293,0.234,–,0.253,0.253,0.858,0.832,0.925,0.601,1
NCI-H2126,0.892,0.885,0.899,0.892,1,0.811,0.768,0.718,0.789,0.728,0.883,0.922,0.915,0.855,0.867,1.07,1.17,1.11,1.17,1.12
LXF-289,1.04,0.992,0.926,1.21,1.12,0.893,0.867,0.909,1,0.949,0.228,0.182,0.184,0.27,0.212,0.985,0.976,1.03,1.13,1.03
NCI-H2009,0.717,0.667,0.693,0.646,0.682,1.08,0.927,0.962,1.36,0.898,0.731,0.705,0.747,0.691,0.721,1.07,1.05,1.05,1.2,1
NCI-H2405,0.741,0.808,0.859,0.837,0.832,–,1.05,1.09,1.16,1.12,–,0.602,0.814,0.769,0.784,0.907,0.925,0.96,0.998,1.04
NCI-H1755,0.795,0.877,0.774,0.923,0.9,1.02,1.05,1.08,1.28,0.997,0.498,0.588,0.568,0.652,0.537,0.927,0.957,1.06,0.988,1.02
HCC-78,0.938,0.789,0.655,–,0.834,0.662,0.785,0.63,0.913,0.916,0.486,0.373,0.476,0.355,0.403,0.44,0.375,0.667,0.549,0.385
LOU-NH91,0.925,0.98,0.88,0.943,0.959,0.724,0.771,0.752,0.754,0.765,0.681,0.621,0.648,0.658,0.78,0.468,0.507,0.486,0.52,0.581
NCI-H3122,0.581,0.644,0.644,0.632,0.683,0.991,1.03,0.965,1.03,1.02,0.301,0.369,0.409,0.475,0.452,1.04,0.967,1.04,1.12,1.01
HCC-827,0.616,0.746,0.652,0.713,0.548,0.198,0.191,0.172,0.224,0.192,0.405,0.425,0.464,0.48,0.431,0.962,1.1,1.07,1.03,1.15
SK-LU-1,0.445,0.504,0.425,0.505,0.373,0.844,1.02,0.894,0.961,1.01,0.325,0.298,0.352,0.327,0.263,1.11,1.48,1.3,1.38,1.58
